Test results reported in patent US7205305B2, “Inhibitors of p38” (Vertex Pharmaceuticals Incorporated, priority 1996, dated 2007).
pIC50: −log10 of the molar value. Where two headings read alike, the source gives them in different places.

Experiments:
[1] = test system: IL-1 production in LPS-stimulated PBMCs; assay: Inhibition of IL-1 production in LPS-stimulated PBMCs ("cell"); format: cell-based, human
How it was run: (§1)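 Human PBMCs (4.8×10^6 cells/ml, RPMI1640/10% FBS) pre-treated with inhibitor dilutions, then stimulated with 4 ng/ml LPS final and incubated overnight (12–15 h) at 37 °C/5% CO2. Supernatant IL-1β and TNF-α measured by ELISA; IC50 from dose-response curves.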

[2] = test system: TNF production in whole blood; assay: Inhibition of TNF production in LPS-stimulated whole blood ("WB"); format: cell-based, human
Experimental: (§2) Inhibitors were serially diluted in DMSO from a 20 mM stock. At least 6 serial dilutions were prepared. Then 4× inhibitor stocks were prepared by adding 4 μl of an inhibitor dilution to 1 ml of RPMI1640 medium/10% fetal bovine serum. The 4× inhibitor stocks contained inhibitor at concentrations of 80 μM, 32 μM, 12.8 μM, 5.12 μM, 2.048 μM, 0.819 μM, 0.328 μM, 0.131 μM, 0.052 μM, 0.021 μM etc. The 4× inhibitor stocks were pre-warmed at 37° C. until use.
(§3) Alternatively, whole blood containing an anti-coagulant was used directly in the assay.
(§4) We placed 100 μl of cell suspension or whole blood in each well of a 96-well cell culture plate. Then we added 50 μl of the 4× inhibitor stock to the cells. Finally, we added 50 μl of a lipopolysaccharide (LPS) working stock solution (16 ng/ml in cell culture medium) to give a final concentration of 4 ng/ml LPS in the assay. The total assay volume of the vehicle control was also adjusted to 200 μl by adding 50 μl cell culture medium. The PBMC cells or whole blood were then incubated overnight (for 12–15 hours) at 37° C./5% CO2 in a humidified atmosphere.
(§5) The next day the cells were mixed on a shaker for 3–5 minutes before centrifugation at 500×g for 5 minutes. Cell culture supernatants were harvested and analyzed by ELISA for levels of IL-1b (R & D Systems, Quantikine kits, #DBL50), TNF-α (BioSource, #KHC3012), IL-6 (Endogen, #EH2-IL6) and IL-8 (Endogen, #EH2-IL8) according to the instructions of the manufacturer. The ELISA data were used to generate dose-response curves from which IC50 values were derived.

[3] = test system: IL-6 production in whole blood; assay: Inhibition of IL-6 production in LPS-stimulated whole blood ("WB"); format: cell-based, human
Experimental: as §2, §3, §4, §5

[4] = test system: TNF production in LPS-stimulated PBMCs; assay: Inhibition of TNF production in LPS-stimulated PBMCs ("cell"); format: cell-based, human
How it was run: as §1

[5] = test system: IL-1 production in whole blood; assay: Inhibition of IL-1 production in LPS-stimulated whole blood ("WB"); format: cell-based, human
Experimental: as §2, §3, §4, §5

[6] = molecular target: activated p38 (Homo sapiens, UniProt Q16539); assay: Inhibition of phosphorylation of EGF receptor peptide ("kinase"); format: biochemical; conditions: inhibition of phosphorylation of EGF receptor peptide by activated p38
activated p38, sequence (Q16539 whole entry): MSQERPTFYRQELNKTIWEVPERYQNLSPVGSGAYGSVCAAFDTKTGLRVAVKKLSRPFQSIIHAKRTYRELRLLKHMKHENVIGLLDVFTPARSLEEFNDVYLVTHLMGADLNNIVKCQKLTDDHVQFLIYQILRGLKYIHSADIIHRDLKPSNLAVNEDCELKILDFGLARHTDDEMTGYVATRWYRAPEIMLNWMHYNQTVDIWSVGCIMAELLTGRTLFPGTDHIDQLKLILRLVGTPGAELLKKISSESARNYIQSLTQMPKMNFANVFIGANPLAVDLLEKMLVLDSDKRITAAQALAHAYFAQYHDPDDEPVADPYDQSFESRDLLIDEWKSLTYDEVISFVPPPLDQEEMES
How it was run: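 Activated p38 was preincubated with inhibitor for 15 min at room temperature in 100 mM HEPES pH 7.6, 10 mM MgCl2, 25 mM β-glycerophosphate, 10% glycerol, 5% DMSO final. Reaction used 200 μM EGF receptor peptide and 100 μM ATP for 30 min at 30° C. TFA-quenched phosphopeptide was quantified by reverse-phase HPLC.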

Row | SMILES | pIC50 ([1]; Homo sapiens, PBMC) | pIC50 ([2]; Homo sapiens) | pIC50 ([3]; Homo sapiens) | pIC50 ([4]; Homo sapiens, PBMC) | pIC50 ([5]; Homo sapiens) | pIC50 [6] | pIC50 [1] | pIC50 [2] | pIC50 [3] | pIC50 [4] | pIC50 [5]
1 | Nc1ccc(C2=C3C=CC(Sc4ccc(F)cc4)=NN3CNC2=O)c(Cl)c1 [Compound 137] | ≥ 7.00 | ≤ 6.30 | 6.30 to 6.60 | 6.30 to 7.00 | ≤ 6.30 | ≥ 7.00 |  |  |  |  | 
2 | O=C1C(c2c(Cl)cccc2Cl)=C2C=CC(Sc3ccc(F)cc3)=NN2CN1CO [Compound 138] | ≥ 7.00 | ≤ 6.30 | ≥ 6.60 | 6.30 to 7.00 | ≤ 6.30 | 6.00 to 7.00 |  |  |  |  | 
3 | COc1ccc(C2=C3C=CC(Sc4ccc(F)cc4)=NN3CNC2=O)c(Cl)c1 [Compound 139] | ≥ 7.00 | ≤ 6.30 | ≤ 6.30 | ≤ 6.30 | ≤ 6.30 | ≥ 7.00 |  |  |  |  | 
4 | CN(C)/C=N\c1ccc(C2=C3C=CC(Sc4ccc(F)cc4Cl)=NN3CNC2=O)c(Cl)c1 [Compound 140] | ≥ 7.00 | ≤ 6.30 | 6.30 to 6.60 | ≥ 7.00 | 6.30 to 6.60 | ≥ 7.00 |  |  |  |  | 
5 | O=C(CCl)Nc1ccc(C2=C3C=CC(Sc4ccc(F)cc4)=NN3CNC2=O)c(Cl)c1 [Compound 141] | ≥ 7.00 | ≤ 6.30 | ≤ 6.30 | ≥ 7.00 | ≤ 6.30 | ≥ 7.00 |  |  |  |  | 
6 | CC(=O)Nc1ccc(C2=C3C=CC(Sc4ccc(F)cc4)=NN3CNC2=O)c(Cl)c1 [Compound 143] | ≥ 7.00 | ≤ 6.30 | ≤ 6.30 | 6.30 to 7.00 | ≤ 6.30 | ≥ 7.00 |  |  |  |  | 
7 | O=C(CN1CCOCC1)Nc1ccc(C2=C3C=CC(Sc4ccc(F)cc4)=NN3CNC2=O)c(Cl)c1 [Compound 144] | ≥ 7.00 | ≤ 6.30 | 6.30 to 6.60 | 6.30 to 7.00 | ≤ 6.30 | ≥ 7.00 |  |  |  |  | 
8 | O=C1NCN2N=C(Sc3ccc(F)cc3Cl)C=CC2=C1c1cc2c(cc1Cl)OCO2 [Compound 145] |  |  |  |  |  | ≥ 7.00 | ≥ 7.00 | ≥ 6.60 | ≥ 6.60 | ≥ 7.00 | ≥ 6.60
9 | NC(=O)C(c1ccc(Sc2ccccc2)cn1)c1c(Cl)cccc1Cl (stereo not drawn) [Compound 201] | ≤ 6.30 | ≥ 6.60 | ≤ 6.30 | ≤ 6.30 | ≤ 6.30 | 6.00 to 7.00 |  |  |  |  | 
10 | NC(=O)C(c1cccc(-c2ccccc2CO)n1)c1c(Cl)cccc1Cl (stereo not drawn) [Compound 302] | ≥ 7.00 | ≤ 6.30 | ≤ 6.30 | 6.30 to 7.00 | ≤ 6.30 | ≥ 7.00 |  |  |  |  | 
11 | CNCc1ccccc1-c1cccc(C(C(N)=O)c2c(Cl)cccc2Cl)n1 (stereo not drawn) [Compound 303] | ≤ 6.30 | ≤ 6.30 | ≤ 6.30 | ≤ 6.30 | ≤ 6.30 | ≤ 6.00 |  |  |  |  | 
12 | NC(=O)C(c1cccc(-c2ccccc2CN2CCNCC2)n1)c1c(Cl)cccc1Cl (stereo not drawn) [Compound 304] | ≤ 6.30 | ≤ 6.30 | ≤ 6.30 | ≤ 6.30 | ≤ 6.30 | ≤ 6.00 |  |  |  |  | 
13 | Cc1ccccc1-c1cccc(C(C(N)=O)c2c(Cl)cccc2Cl)n1 (stereo not drawn) [Compound 305] | ≥ 7.00 | ≤ 6.30 | ≤ 6.30 | ≤ 6.30 | ≤ 6.30 | ≥ 7.00 |  |  |  |  | 
14 | NC(=O)C(c1cccc(-c2ccccc2)n1)c1c(F)cccc1Cl (stereo not drawn) [Compound 306] | 6.30 to 7.00 | ≤ 6.30 | ≤ 6.30 | ≤ 6.30 | ≤ 6.30 | 6.00 to 7.00 |  |  |  |  | 
15 | NC(=O)C(c1cccc(-c2ccccc2/C=N\O)n1)c1c(Cl)cccc1Cl (stereo not drawn) [Compound 307] | 6.30 to 7.00 | ≤ 6.30 | ≤ 6.30 | ≤ 6.30 | ≤ 6.30 | ≥ 7.00 |  |  |  |  | 
16 | NC(=O)C(c1cccc(-c2ccc(F)cc2)n1)c1c(Cl)cccc1Cl (stereo not drawn) [Compound 309] | 6.30 to 7.00 | ≤ 6.30 | ≤ 6.30 | 6.30 to 7.00 | ≤ 6.30 | 6.00 to 7.00 |  |  |  |  | 
17 | Cc1cccc(-c2cccc(C(C(N)=O)c3c(Cl)cccc3Cl)n2)c1 (stereo not drawn) [Compound 312] | 6.30 to 7.00 | ≤ 6.30 | ≤ 6.30 | ≤ 6.30 | ≤ 6.30 | ≥ 7.00 |  |  |  |  | 
18 | NC(=O)C(c1cccc(-c2ccc(Cl)cc2Cl)n1)c1c(Cl)cccc1Cl (stereo not drawn) [Compound 325] | ≥ 7.00 | ≤ 6.30 | ≤ 6.30 | 6.30 to 7.00 | ≤ 6.30 | ≥ 7.00 |  |  |  |  | 
19 | NC(=O)C(c1cccc(-c2ccc(F)cc2)n1)c1c(F)cccc1Cl (stereo not drawn) [Compound 329] | 6.30 to 7.00 | ≤ 6.30 | ≤ 6.30 | ≤ 6.30 | ≤ 6.30 | 6.00 to 7.00 |  |  |  |  | 
20 | Cc1cccc(-c2cccc(C(C(N)=O)c3c(F)cccc3Cl)n2)c1 (stereo not drawn) [Compound 332] | 6.30 to 7.00 | ≤ 6.30 | ≤ 6.30 | ≤ 6.30 | ≤ 6.30 | 6.00 to 7.00 |  |  |  |  | 
21 | Cc1ccccc1-c1cccc(C(C(N)=O)c2c(F)cccc2Cl)n1 (stereo not drawn) [Compound 335] | ≤ 6.30 | ≤ 6.30 | ≤ 6.30 | ≤ 6.30 | ≤ 6.30 | 6.00 to 7.00 |  |  |  |  | 
22 | NC(=O)C(c1cccc(-c2ccc(Cl)cc2Cl)n1)c1c(F)cccc1Cl (stereo not drawn) [Compound 346] | ≤ 6.30 | ≤ 6.30 | ≤ 6.30 | ≤ 6.30 | ≤ 6.30 | 6.00 to 7.00 |  |  |  |  | 
23 | NC(=O)C(c1cccc(-c2ccccc2)n1)c1cc(Cl)ccc1Cl (stereo not drawn) [Compound 349] | 6.30 to 7.00 | ≤ 6.30 | ≤ 6.30 | ≤ 6.30 | ≤ 6.30 | ≤ 6.00 |  |  |  |  | 
24 | NC(=O)C(c1cccc(-c2cccc3ccccc23)n1)c1c(Cl)cccc1Cl (stereo not drawn) [Compound 362] | 6.30 to 7.00 | ≤ 6.30 | ≤ 6.30 | 6.30 to 7.00 | ≤ 6.30 | ≥ 7.00 |  |  |  |  | 
25 | Cc1cc(F)ccc1-c1cccc(C(C(N)=O)c2c(Cl)cccc2Cl)n1 (stereo not drawn) [Compound 363] | ≥ 7.00 | ≤ 6.30 | ≤ 6.30 | 6.30 to 7.00 | ≤ 6.30 | ≥ 7.00 |  |  |  |  | 
